Data taken from paper PMC10599993, “The PTPN2/PTPN1 inhibitor ABBV-CLS-484 unleashes potent anti-tumour immunity” (Nature, 2023).

What was measured:
Assay in all cases: biochemical
Set-up in all cases: Safety pharmacology off-target panel at Eurofins, radioligand binding with agonist or antagonist radioligand (Supplementary Table 2)
[1] = target: T1, H1 (Homo sapiens, UniProt P35367); details: antagonist radioligand
T1 construct: gene HRH1
Protocol: (§1) Wide-range phosphatase, kinase and preclinical safety pharmacology off-target activity screens were conducted at Eurofins (Extended Data Table 5 and Supplementary Tables 1 and 2). A small phosphatase panel was developed at AbbVie to assess IC50 values on select phosphatases. The following enzymes used in the phosphatase selectivity panel were purchased from Eurofins: PTPN1 (PTP1B; 14–621), PTPN2 (TC-PTP; 14–646), PTPN9 (14–592), SHP1 (14–591) and SHP2 (14–622). The catalytic activity of the phosphatase was monitored using the small-molecule substrate DiFMUP (ThermoFisher) in a fluorescence assay format. In brief, the phosphatase reactions were performed at room temperature in the following assay buffer: 50 mM HEPES, pH 7.2, 100 mM NaCl, 1 mM EDTA, 0.005% Tween-20 and 5 mM TCEP. Each phosphatase was incubated with increasing concentrations of AC484 for 5 min, after which the substrate DiFMUP was added and incubated at 25 °C for 30 min. The final concentration of the enzyme and substrate was maintained at 0.5 nM and 5 μM, respectively, in all the assays. The reaction was then quenched by the addition of a 100 μM solution of bpV(Phen) (Enzo Life Sciences). The fluorescence signal was monitored using an Envision microplate reader (Perkin-Elmer) using excitation and emission wavelengths of 340 nm and 450 nm, respectively. The dose–response curves for the inhibitors were analysed using normalized IC50 regression curve fitting with control-based normalization. Supplementary file 41586_2023_6575_MOESM4_ESM.xlsx: Supplementary Table 2 AC484 receptor selectivity screen.

[2] = target: T2, NK2 (Homo sapiens, UniProt P21452); details: agonist radioligand
T2 construct: gene TACR2
Protocol: as §1

[3] = target: T3, 5-HT3 (Homo sapiens, UniProt P46098); details: antagonist radioligand
T3 construct: gene HTR3A
Protocol: as §1

[4] = target: T4, D1 (Homo sapiens, UniProt P21728); details: antagonist radioligand
T4 construct: gene DRD1
T4 sequence (P21728 whole entry): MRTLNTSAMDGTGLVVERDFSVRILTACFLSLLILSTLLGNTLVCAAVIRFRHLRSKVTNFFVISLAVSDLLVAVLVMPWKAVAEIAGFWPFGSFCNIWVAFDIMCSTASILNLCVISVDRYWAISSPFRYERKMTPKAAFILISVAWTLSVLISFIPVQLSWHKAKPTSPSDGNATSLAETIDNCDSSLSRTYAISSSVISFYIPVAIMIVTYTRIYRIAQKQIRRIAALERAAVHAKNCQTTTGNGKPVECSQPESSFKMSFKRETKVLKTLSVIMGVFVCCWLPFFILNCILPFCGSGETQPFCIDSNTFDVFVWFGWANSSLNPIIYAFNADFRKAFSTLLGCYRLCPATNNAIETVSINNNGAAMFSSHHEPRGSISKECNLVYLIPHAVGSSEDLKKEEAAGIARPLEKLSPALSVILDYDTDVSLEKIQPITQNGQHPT
Protocol: as §1

[5] = target: T5, a1B (h) (Homo sapiens, UniProt P35368); details: antagonist radioligand
T5 construct: gene ADRA1B
Protocol: as §1

[6] = target: T6, M1 (Homo sapiens, UniProt P11229); details: antagonist radioligand
T6 construct: gene CHRM1
T6 sequence (P11229 whole entry): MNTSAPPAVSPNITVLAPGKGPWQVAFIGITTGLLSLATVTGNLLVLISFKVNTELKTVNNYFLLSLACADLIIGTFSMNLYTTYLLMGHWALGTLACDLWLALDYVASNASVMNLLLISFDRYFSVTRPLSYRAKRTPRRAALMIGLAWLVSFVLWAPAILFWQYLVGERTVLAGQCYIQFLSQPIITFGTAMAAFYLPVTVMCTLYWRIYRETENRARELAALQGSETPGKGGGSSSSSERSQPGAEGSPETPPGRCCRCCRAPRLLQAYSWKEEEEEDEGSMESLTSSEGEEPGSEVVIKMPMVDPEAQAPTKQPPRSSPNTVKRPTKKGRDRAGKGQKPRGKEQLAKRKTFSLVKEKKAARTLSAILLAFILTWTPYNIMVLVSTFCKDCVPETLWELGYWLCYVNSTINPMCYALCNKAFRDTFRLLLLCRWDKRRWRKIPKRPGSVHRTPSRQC
Protocol: as §1

[7] = target: T7, AT2 (h) (Homo sapiens, UniProt P50052); details: agonist radioligand
T7 construct: gene AGTR2
T7 sequence (P50052 whole entry): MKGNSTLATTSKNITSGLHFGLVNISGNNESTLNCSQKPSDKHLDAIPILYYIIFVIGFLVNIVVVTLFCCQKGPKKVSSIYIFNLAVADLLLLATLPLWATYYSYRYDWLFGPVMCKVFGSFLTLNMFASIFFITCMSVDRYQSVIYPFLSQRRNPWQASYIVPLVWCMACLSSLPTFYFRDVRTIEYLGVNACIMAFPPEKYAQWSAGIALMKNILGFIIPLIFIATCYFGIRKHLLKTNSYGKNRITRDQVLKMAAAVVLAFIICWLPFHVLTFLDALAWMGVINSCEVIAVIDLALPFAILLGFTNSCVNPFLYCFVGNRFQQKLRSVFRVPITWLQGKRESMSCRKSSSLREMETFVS
Protocol: as §1

[8] = target: T8, AT1 (h) (Homo sapiens, UniProt P30556); details: antagonist radioligand
T8 construct: gene AGTR1
Protocol: as §1

[9] = target: T9, 5-HT2B (Homo sapiens, UniProt P41595); details: agonist radioligand
T9 construct: gene HTR2B
T9 sequence (P41595 whole entry): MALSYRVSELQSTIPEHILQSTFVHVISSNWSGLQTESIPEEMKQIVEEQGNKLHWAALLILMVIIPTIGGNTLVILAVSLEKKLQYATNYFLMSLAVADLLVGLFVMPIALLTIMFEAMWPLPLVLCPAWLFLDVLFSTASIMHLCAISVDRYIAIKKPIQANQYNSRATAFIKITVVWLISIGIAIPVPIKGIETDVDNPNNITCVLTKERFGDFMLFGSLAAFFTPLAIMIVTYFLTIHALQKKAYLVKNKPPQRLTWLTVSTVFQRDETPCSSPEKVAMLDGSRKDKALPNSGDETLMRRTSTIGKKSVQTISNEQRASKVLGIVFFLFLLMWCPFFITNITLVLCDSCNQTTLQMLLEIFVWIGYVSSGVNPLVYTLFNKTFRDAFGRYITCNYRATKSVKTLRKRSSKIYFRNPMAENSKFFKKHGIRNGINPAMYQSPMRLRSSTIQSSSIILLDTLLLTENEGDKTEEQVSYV
Protocol: as §1

[10] = target: T10, A2B (h) (Homo sapiens, UniProt P29275); details: antagonist radioligand
T10 construct: gene ADORA2B
T10 sequence (P29275 whole entry): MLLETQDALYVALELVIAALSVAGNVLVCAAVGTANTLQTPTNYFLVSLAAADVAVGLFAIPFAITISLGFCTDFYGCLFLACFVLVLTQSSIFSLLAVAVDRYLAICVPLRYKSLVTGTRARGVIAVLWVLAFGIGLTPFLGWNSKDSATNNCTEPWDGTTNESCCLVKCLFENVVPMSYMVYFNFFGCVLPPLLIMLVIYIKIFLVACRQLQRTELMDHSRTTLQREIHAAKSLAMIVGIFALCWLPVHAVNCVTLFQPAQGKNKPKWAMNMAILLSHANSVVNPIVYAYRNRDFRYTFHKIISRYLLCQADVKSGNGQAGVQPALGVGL
Protocol: as §1

[11] = target: T11, d (DOP) (Homo sapiens, UniProt P41143); details: agonist radioligand
T11 construct: gene OPRD1; DOP
Protocol: as §1

[12] = target: T12, M3 (Homo sapiens, UniProt P20309); details: antagonist radioligand
T12 construct: gene CHRM3
T12 sequence (P20309 whole entry): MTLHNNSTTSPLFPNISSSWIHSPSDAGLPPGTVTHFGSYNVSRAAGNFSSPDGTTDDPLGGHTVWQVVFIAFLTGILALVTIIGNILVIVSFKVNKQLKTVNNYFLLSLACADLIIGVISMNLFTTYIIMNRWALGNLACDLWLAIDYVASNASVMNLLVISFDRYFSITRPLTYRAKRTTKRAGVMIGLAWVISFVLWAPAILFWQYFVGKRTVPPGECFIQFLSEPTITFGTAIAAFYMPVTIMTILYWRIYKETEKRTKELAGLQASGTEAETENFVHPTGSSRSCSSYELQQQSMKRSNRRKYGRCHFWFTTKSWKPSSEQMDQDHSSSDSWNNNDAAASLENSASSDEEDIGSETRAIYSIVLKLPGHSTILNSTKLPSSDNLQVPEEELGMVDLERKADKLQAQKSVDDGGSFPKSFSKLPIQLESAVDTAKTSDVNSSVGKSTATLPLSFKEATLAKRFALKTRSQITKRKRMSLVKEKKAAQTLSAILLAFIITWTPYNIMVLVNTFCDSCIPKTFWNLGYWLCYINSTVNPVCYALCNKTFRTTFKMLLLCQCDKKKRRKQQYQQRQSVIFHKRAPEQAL
Protocol: as §1

[13] = target: T13, m (MOP) (Homo sapiens, UniProt P35372); details: agonist radioligand
T13 construct: gene OPRM1; MOP
Protocol: as §1

[14] = target: T14, Motilin (Homo sapiens, UniProt O43193); details: agonist radioligand
T14 construct: gene MLNR
T14 sequence (O43193 whole entry): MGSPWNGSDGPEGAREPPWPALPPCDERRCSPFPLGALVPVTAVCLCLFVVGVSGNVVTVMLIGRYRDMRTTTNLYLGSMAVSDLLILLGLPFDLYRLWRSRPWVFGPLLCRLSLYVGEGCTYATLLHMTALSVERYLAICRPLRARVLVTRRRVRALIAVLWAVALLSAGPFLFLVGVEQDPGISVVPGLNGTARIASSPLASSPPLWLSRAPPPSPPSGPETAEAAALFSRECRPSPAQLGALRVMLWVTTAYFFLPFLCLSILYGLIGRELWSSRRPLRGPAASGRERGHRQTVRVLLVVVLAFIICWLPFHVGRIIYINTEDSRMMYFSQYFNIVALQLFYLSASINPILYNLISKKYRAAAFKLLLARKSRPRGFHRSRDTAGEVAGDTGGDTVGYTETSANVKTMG
Protocol: as §1

[15] = target: T15, Dopamine transporter (Homo sapiens, UniProt Q01959); details: antagonist radioligand
T15 construct: gene SLC6A3
Protocol: as §1

[16] = target: T16, 5-HT4e (Homo sapiens, UniProt Q13639); details: antagonist radioligand
T16 construct: gene HTR4; 5-HT4e isoform
T16 sequence (Q13639 whole entry, canonical isoform): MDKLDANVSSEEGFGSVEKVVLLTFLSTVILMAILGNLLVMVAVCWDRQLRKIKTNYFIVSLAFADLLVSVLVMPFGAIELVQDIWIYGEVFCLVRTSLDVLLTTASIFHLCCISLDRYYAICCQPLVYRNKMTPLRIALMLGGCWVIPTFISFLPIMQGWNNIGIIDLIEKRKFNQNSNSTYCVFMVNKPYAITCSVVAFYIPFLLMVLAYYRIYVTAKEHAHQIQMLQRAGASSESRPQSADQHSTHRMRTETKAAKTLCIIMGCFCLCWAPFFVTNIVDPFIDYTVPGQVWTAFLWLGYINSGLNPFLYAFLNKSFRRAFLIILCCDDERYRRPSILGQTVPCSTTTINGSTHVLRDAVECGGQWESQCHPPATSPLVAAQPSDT
Protocol: as §1

[17] = target: T17, NK1 (Homo sapiens, UniProt P25103); details: agonist radioligand
T17 construct: gene TACR1
T17 sequence (P25103 whole entry): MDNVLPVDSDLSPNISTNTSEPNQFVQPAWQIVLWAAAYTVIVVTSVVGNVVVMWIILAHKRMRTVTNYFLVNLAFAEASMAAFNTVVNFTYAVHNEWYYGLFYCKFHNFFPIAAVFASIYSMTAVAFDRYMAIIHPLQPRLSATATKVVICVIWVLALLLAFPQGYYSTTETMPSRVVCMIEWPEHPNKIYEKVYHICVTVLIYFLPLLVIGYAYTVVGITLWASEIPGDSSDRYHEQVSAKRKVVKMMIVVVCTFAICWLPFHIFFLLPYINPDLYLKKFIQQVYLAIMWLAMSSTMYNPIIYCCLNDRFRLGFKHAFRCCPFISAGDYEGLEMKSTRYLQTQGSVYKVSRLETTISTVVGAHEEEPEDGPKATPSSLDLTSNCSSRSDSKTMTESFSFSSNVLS
Protocol: as §1

[18] = target: T18, 5-HT2C (Homo sapiens, UniProt P28335); details: antagonist radioligand
T18 construct: gene HTR2C
Protocol: as §1

[19] = target: T19, 5-HT1A (Homo sapiens, UniProt P08908); details: agonist radioligand
T19 construct: gene HTR1A
T19 sequence (P08908 whole entry): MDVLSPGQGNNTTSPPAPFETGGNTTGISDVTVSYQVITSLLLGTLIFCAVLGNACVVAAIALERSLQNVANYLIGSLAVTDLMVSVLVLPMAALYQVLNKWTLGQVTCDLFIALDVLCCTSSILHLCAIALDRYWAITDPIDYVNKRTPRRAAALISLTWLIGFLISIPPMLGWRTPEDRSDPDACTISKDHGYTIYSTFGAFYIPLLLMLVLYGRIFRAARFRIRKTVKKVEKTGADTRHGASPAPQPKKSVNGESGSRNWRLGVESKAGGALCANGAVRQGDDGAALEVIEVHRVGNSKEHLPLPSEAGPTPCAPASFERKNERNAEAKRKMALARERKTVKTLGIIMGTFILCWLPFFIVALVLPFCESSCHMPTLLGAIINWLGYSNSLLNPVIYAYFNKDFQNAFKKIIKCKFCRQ
Protocol: as §1

Measured: AC50

T1 sequence (P35367 whole entry): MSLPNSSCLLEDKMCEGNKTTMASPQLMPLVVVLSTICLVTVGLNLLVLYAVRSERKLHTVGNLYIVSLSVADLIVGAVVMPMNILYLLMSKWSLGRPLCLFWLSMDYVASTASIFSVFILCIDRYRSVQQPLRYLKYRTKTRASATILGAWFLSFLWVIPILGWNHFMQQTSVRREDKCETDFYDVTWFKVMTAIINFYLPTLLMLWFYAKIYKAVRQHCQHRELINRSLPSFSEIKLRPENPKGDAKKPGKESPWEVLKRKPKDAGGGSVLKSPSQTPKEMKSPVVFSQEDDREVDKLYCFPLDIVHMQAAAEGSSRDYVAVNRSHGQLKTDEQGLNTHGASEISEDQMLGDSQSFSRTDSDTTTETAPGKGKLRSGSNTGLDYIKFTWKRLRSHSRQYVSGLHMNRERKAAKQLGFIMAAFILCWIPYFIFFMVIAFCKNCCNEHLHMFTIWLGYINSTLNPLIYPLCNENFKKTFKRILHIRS

CC(C)CCN[C@@H]1CCc2cc(O)c(N3CC(=O)NS3(=O)=O)c(F)c2C1 [AC484, ABBV-CLS-484]
> 0.01 mM: all assays above
